Results published in US8609399B2, “Reducing insoluble deposit formation in ethanol production” (Global Process Technologies, Inc., priority 2007, dated 2013).

Assay: Solubility in Presence of Ethanol (temperature at which a precipitate became visible)
Type: physicochemical
Details: 800 ppm Mg2+ and 3600 ppm phytic acid
Text: In the table, the water and ethanol columns indicate the temperature at which a precipitate became visible in a solution containing 800 ppm Mg^2+ and 3600 ppm phytic acid.

magnesium phytate
Temperature (° C.; in 13% ethanol/87% water solution) at which a precipitate became visible (pH 4.35): 40 °C
Temperature (° C.; in 100% water solution) at which a precipitate became visible (pH 4.52): 80 °C
Temperature (° C.; in 13% ethanol/87% water solution) at which a precipitate became visible (pH 4.53): 30 °C
Temperature (° C.; in 13% ethanol/87% water solution) at which a precipitate became visible (pH 4.6): 21 °C
Temperature (° C.; in 100% water solution) at which a precipitate became visible (pH 4.97): 60 °C
Temperature (° C.; in 100% water solution) at which a precipitate became visible (pH 5.36): 40 °C
Temperature (° C.; in 100% water solution) at which a precipitate became visible (pH 5.6): 21 °C
